Reference: publication PMC11348465, “Pharmacochemical Study of Multitarget Amino Acids’ Hybrids: Design, Synthesis, In vitro, and In silico Studies” (Medicinal Chemistry (Shariqah (United Arab Emirates), 2024)

Key:
[1] = cited from earlier work
[2] = molecular target: T1, ovine COX-2 (Ovis aries, UniProt P79208); experiment: Cyclooxygenase-2 inhibition study; format: biochemical
T1 construct: purchased Cayman (USA)
T1 sequence (P79208 17-603): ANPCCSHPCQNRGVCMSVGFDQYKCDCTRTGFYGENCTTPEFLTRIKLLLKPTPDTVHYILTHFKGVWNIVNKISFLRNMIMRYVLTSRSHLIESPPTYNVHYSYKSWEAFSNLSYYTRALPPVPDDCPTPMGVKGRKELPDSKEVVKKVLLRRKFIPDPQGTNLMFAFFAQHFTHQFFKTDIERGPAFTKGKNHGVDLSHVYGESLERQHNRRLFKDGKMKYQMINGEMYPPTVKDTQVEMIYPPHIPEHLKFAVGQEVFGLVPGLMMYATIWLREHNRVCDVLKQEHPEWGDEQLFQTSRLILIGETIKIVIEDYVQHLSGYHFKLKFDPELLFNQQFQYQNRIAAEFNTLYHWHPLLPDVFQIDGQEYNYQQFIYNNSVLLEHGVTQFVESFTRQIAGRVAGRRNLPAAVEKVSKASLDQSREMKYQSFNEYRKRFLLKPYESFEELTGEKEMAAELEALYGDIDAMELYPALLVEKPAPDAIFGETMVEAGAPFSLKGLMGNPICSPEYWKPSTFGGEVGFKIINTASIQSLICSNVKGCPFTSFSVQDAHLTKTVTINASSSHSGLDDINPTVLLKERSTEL
Description: The in vitro study of cyclooxygenase (COX) activity was determined by using arachidonic acid (AA) as the substrate and N,N,N’,N’-tetramethylphenylenediamine (TMPD) as the co-substrate. […] The absorption due to the spontaneous oxidation of TMPD was subtracted from the initial rate of oxidation observed in the presence of AA. […] A blank determination was used first to serve as a negative control. Indomethacin was used as a reference COX-2 inhibitor (positive control).
The role of COX-2 in neurodegenerative diseases has been reported, and COX-2 inhibition is considered of high importance as a therapeutic tool. The designed derivatives were tested for their COX-2 inhibition activity on the ovine COX-2 enzyme. […] Indomethacin was used as a reference compound.

[3] = molecular target: T2, soybean lipoxygenase (LOX-1) (Glycine max, UniProt P08170); details: % inhibition at 100 µM; cited from earlier work
T2 construct: purchased Sigma Chemical, Co. (St Louis, MO, USA)
T2 sequence (P08170 1-839): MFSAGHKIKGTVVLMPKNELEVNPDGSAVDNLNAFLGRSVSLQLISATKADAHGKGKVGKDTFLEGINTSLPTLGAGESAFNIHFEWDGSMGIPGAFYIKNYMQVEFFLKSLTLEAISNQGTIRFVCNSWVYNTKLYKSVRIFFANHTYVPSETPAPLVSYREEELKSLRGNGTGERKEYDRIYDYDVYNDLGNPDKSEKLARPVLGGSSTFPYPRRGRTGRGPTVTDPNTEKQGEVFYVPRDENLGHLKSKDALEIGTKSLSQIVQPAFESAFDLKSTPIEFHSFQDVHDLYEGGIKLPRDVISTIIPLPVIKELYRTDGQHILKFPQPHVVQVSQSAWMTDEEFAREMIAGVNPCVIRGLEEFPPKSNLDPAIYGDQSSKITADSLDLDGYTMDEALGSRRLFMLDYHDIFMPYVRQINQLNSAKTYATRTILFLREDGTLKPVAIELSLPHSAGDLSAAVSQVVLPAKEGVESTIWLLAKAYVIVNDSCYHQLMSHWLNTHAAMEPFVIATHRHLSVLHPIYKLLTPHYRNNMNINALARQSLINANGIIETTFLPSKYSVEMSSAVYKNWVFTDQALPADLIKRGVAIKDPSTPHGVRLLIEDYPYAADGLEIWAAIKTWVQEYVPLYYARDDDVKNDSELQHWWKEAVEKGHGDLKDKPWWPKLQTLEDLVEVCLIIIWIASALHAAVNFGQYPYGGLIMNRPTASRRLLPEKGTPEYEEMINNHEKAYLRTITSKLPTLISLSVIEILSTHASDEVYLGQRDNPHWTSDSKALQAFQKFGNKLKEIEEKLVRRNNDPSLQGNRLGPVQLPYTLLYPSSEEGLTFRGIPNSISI

inhibition at 100 µM [2]: 9%
Compound: O=C(O)/C=C/C=C/c1ccccc1 [Compound 23]
AAPH inhibition (%, at 100 µM) [1]: 30%
LOX inhibition (%) [3]: 24%
